The assay addresses T1, ΔF508-CFTR (Homo sapiens, UniProt P13569, DEL508-508).
T1 construct: expressed in transfected cells
The experiment in a line: Membrane potential optical (FRET/VIPR) assay, identification of correction compounds. The assay is classed as cell-based. The following applies: Table 3, assay not given; for Emax: read-out: % Activity / % Efficacy (relative efficacy). A digest of the protocol: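 NIH3T3 mouse fibroblasts stably expressing ΔF508-CFTR were exposed to compound for 16 h at 37° C in serum-free medium, then loaded with DiSBAC2(3)/CC2-DMPE. After addition of 10 μM forskolin plus 20 μM genistein in Cl⁻-free gluconate bath (pH 7.4), depolarization from Cl⁻ efflux was read by FRET (VIPR II).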

T1 sequence (P13569 with tags, fused parts or gaps DEL508-508): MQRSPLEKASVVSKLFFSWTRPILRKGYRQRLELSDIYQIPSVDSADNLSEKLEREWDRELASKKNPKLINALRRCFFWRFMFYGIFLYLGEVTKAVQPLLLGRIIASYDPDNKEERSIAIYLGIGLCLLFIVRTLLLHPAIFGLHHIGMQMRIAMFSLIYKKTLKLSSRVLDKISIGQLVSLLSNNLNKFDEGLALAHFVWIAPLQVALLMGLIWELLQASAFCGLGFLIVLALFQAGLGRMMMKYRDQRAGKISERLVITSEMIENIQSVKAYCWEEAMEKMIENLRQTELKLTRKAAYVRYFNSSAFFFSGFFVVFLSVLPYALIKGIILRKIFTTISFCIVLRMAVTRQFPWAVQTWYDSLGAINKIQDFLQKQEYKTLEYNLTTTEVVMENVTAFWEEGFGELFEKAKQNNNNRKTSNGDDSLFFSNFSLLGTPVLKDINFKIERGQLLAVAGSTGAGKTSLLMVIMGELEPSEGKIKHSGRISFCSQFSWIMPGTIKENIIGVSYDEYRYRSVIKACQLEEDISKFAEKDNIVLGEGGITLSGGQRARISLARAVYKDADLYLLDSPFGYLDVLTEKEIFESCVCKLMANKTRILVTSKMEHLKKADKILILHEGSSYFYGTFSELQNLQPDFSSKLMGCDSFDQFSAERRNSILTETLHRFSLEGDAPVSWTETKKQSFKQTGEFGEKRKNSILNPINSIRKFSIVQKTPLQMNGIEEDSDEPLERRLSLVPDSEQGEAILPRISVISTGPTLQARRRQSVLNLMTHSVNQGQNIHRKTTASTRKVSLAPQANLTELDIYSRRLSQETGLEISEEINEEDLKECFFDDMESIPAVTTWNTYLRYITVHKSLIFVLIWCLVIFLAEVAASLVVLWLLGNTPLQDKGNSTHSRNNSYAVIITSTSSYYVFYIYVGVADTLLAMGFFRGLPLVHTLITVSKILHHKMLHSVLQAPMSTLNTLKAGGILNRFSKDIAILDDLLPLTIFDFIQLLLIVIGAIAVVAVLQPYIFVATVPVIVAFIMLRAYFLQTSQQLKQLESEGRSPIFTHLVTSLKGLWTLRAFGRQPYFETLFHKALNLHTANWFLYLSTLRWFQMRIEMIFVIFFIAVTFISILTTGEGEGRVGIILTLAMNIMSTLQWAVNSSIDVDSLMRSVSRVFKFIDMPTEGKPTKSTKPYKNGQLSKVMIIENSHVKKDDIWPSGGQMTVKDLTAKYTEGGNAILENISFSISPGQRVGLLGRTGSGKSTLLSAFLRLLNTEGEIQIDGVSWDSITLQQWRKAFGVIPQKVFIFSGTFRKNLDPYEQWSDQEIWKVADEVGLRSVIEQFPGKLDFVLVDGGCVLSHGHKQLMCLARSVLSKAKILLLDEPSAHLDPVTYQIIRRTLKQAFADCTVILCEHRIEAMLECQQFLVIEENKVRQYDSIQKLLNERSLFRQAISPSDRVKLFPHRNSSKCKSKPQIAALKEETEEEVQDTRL

Consider `O=C(Nc1ncc(C(c2ccccc2Cl)N2CC[C@H](O)C2)s1)C1(c2ccc3c(c2)OCO3)CC1` (stereo partly shown) [Example 310], for which the 50% effective concentration (EC50) is less than 10 µM and the Emax was more than 100%.

With `O=C(Nc1ncc(C(c2ccccc2Cl)N2CCC(O)C2)s1)C1(c2ccc3c(c2)OCO3)CC1` (stereo not shown) [Example 311], the EC50 was less than 10 µM and the Emax was more than 100%.

As to `CN(C)CC(=O)Nc1ccc(C2(C(=O)Nc3ncc(Cc4ccccc4Cl)s3)CC2)cc1` [Example 312], the concentration for a half-maximal effect (EC50) was less than 10 µM and the Emax is 25 to 100%.

`O=C(Nc1ncc(Cc2ccccc2Cl)s1)C1(c2ccc(N3CCOCC3)cc2)CC1` [Example 313]: the 50% effective concentration (EC50) lay in the range of 10 to 25 µM and the Emax is 25 to 100%.

Turning to `CN1CCN(c2cccc(C3(C(=O)Nc4ncc(Cc5ccccc5Cl)s4)CC3)c2)CC1` [Example 314], the EC50 is less than 10 µM and the Emax was 25 to 100%.

As to `O=C(Nc1ncc(Cc2ccccc2Cl)s1)C1(c2cccc(N3CCOCC3)c2)CC1` [Example 315], the EC50 is less than 10 µM and the Emax lay in the range of 25 to 100%.

Consider `O=C(Nc1ncc(Cc2ccccc2Cl)s1)C1(c2cccc(O)c2)CC1` [Example 316], for which the EC50 is less than 10 µM and the Emax fell in the range of 25 to 100%.

Take `O=C(Nc1ncc(Cc2ccccc2Cl)s1)C1(c2ccc(O)cc2)CC1` [Example 317]: the EC50 is less than 10 µM and the Emax lay within 25 to 100%.

For `O=C(Nc1ncc(CN2CC[C@@H](O)C2)s1)C1(c2ccc3c(c2)OCO3)CC1` [Example 319], the concentration giving a half-maximal response (EC50) was 10 to 25 µM and the Emax lay in the range of 25 to 100%.

For the molecule `O=C(Nc1ncc(CN2CC[C@H](O)C2)s1)C1(c2ccc3c(c2)OCO3)CC1` [Example 320], the EC50 was in the range of 10 to 25 µM and the Emax was more than 100%.

In the case of `CC(=O)O[C@@H]1CCN(C(c2cnc(NC(=O)C3(c4ccc5c(c4)OCO5)CC3)s2)c2ccccc2Cl)C1` (stereo partly shown) [Example 321], the EC50 is less than 10 µM and the Emax is more than 100%.

Regarding `O=C(Nc1ncc([C@@H](O)c2ccccc2Cl)s1)C1(c2ccc3c(c2)OCO3)CC1` [Example 322], the 50% effective concentration (EC50) was less than 10 µM and the Emax was more than 100%.

With `O=C(Nc1ncc([C@H](O)c2ccccc2Cl)s1)C1(c2ccc3c(c2)OCO3)CC1` [Example 323], the EC50 was less than 10 µM and the Emax was more than 100%.

For the molecule `COCC1CCCN1C(c1ccc(Cl)cc1)c1cnc(NC(=O)C2(c3ccc4c(c3)OCO4)CC2)s1` (stereo not shown) [Example 331], the EC50 was less than 10 µM and the Emax was more than 100%.

Regarding `O=C(Nc1ncc(C(c2ccc(Cl)cc2)N2CC[C@@H](O)C2)s1)C1(c2ccc3c(c2)OCO3)CC1` (stereo partly shown) [Example 335], the EC50 was less than 10 µM and the Emax was more than 100%.

For `O=C(Nc1ncc(C(c2cccc(Cl)c2)N2CC[C@@H](O)C2)s1)C1(c2ccc3c(c2)OCO3)CC1` (stereo partly shown) [Example 343], the EC50 was less than 10 µM and the Emax was more than 100%.

Consider `COc1cccc(C(c2cnc(NC(=O)C3(c4ccc5c(c4)OCO5)CC3)s2)N2CCCCC2)c1` (stereo not shown) [Example 344], for which the EC50 was less than 10 µM and the Emax lay within 25 to 100%.

`COC[C@@H]1CCCN1C(c1cccc(OC)c1)c1cnc(NC(=O)C2(c3ccc4c(c3)OCO4)CC2)s1` (stereo partly shown) [Example 345]: the EC50 was less than 10 µM and the Emax lay within 25 to 100%.

For `COc1ccccc1C(c1cnc(NC(=O)C2(c3ccc4c(c3)OCO4)CC2)s1)N1CC[C@@H](O)C1` (stereo partly shown) [Example 346], the EC50 is 10 to 25 µM and the Emax is more than 100%.

For the molecule `COC[C@@H]1CCCN1C(c1ccccc1)c1cnc(NC(=O)C2(c3ccc4c(c3)OCO4)CC2)s1` (stereo partly shown) [Example 347], the EC50 was in the range of 10 to 25 µM and the Emax is more than 100%.

Take `COc1ccccc1C(c1cnc(NC(=O)C2(c3ccc4c(c3)OCO4)CC2)s1)N1CCC(O)CC1` (stereo not shown) [Example 348]: the half-maximal effective concentration (EC50) fell in the range of 10 to 25 µM and the Emax was more than 100%.

With `COc1ccccc1C(c1cnc(NC(=O)C2(c3ccc4c(c3)OCO4)CC2)s1)N1CCCCC1` (stereo not shown) [Example 349], the EC50 is less than 10 µM and the Emax is more than 100%.

With `COc1ccc(C(c2cnc(NC(=O)C3(c4ccc5c(c4)OCO5)CC3)s2)N(C)C)cc1` (stereo not shown) [Example 350], the EC50 was less than 10 µM and the Emax is more than 100%.

As to `O=C(Nc1ncc(C(c2ccccc2)N2CCC(O)CC2)s1)C1(c2ccc3c(c2)OCO3)CC1` (stereo not shown) [Example 351], the EC50 is 10 to 25 µM and the Emax was more than 100%.

Turning to `COc1ccc(C(c2cnc(NC(=O)C3(c4ccc5c(c4)OCO5)CC3)s2)N2CC[C@@H](O)C2)cc1` (stereo partly shown) [Example 352], the EC50 lay in the range of 10 to 25 µM and the Emax is more than 100%.

`COCC1CCCN1C(c1cccc(OC)c1)c1cnc(NC(=O)C2(c3ccc4c(c3)OCO4)CC2)s1` (stereo not shown) [Example 353]: the EC50 was less than 10 µM and the Emax is more than 100%.

Take `COc1ccccc1C(c1cnc(NC(=O)C2(c3ccc4c(c3)OCO4)CC2)s1)N1CCCC1` (stereo not shown) [Example 354]: the EC50 is less than 10 µM and the Emax was more than 100%.

Take `COCC1CCCN1C(c1ccccc1)c1cnc(NC(=O)C2(c3ccc4c(c3)OCO4)CC2)s1` (stereo not shown) [Example 355]: the EC50 was less than 10 µM and the Emax is more than 100%.

As to `CN(C)C(c1ccccc1)c1cnc(NC(=O)C2(c3ccc4c(c3)OCO4)CC2)s1` (stereo not shown) [Example 356], the concentration giving a half-maximal response (EC50) was in the range of 10 to 25 µM and the Emax was more than 100%.

As to `CCN(CC)C(c1cccc(OC)c1)c1cnc(NC(=O)C2(c3ccc4c(c3)OCO4)CC2)s1` (stereo not shown) [Example 357], the concentration for a half-maximal effect (EC50) is less than 10 µM and the Emax is more than 100%.

With `COCC1CCCN1C(c1cnc(NC(=O)C2(c3ccc4c(c3)OCO4)CC2)s1)c1ccccc1OC` (stereo not shown) [Example 358], the EC50 was in the range of 10 to 25 µM and the Emax was more than 100%.

For `O=C(Nc1ncc(C(c2ccccc2)N2CCCC2)s1)C1(c2ccc3c(c2)OCO3)CC1` (stereo not shown) [Example 359], the EC50 is less than 10 µM and the Emax is more than 100%.

On to `COc1cccc(C(c2csc(NC(=O)C3(c4ccc5c(c4)OCO5)CC3)n2)N2CCC(O)CC2)c1` (stereo not shown) [Example 360], for which the concentration for a half-maximal effect (EC50) lay within 10 to 25 µM and the Emax is more than 100%.

With `COc1ccc(C(c2cnc(NC(=O)C3(c4ccc5c(c4)OCO5)CC3)s2)N2CCCCC2)cc1` (stereo not shown) [Example 361], the EC50 is less than 10 µM and the Emax was more than 100%.

As to `COc1ccc(C(c2cnc(NC(=O)C3(c4ccc5c(c4)OCO5)CC3)s2)N2CCCC2)cc1` (stereo not shown) [Example 362], the concentration giving a half-maximal response (EC50) was in the range of 10 to 25 µM and the Emax is more than 100%.

`COc1ccccc1C(c1cnc(NC(=O)C2(c3ccc4c(c3)OCO4)CC2)s1)N(C)C` (stereo not shown) [Example 364]: the 50% effective concentration (EC50) was in the range of 10 to 25 µM and the Emax is more than 100%.

In the case of `CCN(CC)C(c1cnc(NC(=O)C2(c3ccc4c(c3)OCO4)CC2)s1)c1ccccc1OC` (stereo not shown) [Example 365], the concentration giving a half-maximal response (EC50) was less than 10 µM and the Emax is more than 100%.

With `COc1cccc(C(c2cnc(NC(=O)C3(c4ccc5c(c4)OCO5)CC3)s2)N(C)C)c1` (stereo not shown) [Example 366], the EC50 fell in the range of 10 to 25 µM and the Emax was more than 100%.

For the molecule `COc1cccc(C(c2cnc(NC(=O)C3(c4ccc5c(c4)OCO5)CC3)s2)N2CC[C@@H](O)C2)c1` (stereo partly shown) [Example 367], the EC50 is less than 10 µM and the Emax is more than 100%.

In the case of `O=C(Nc1ncc(C(c2ccccc2)N2CC[C@@H](O)C2)s1)C1(c2ccc3c(c2)OCO3)CC1` (stereo partly shown) [Example 368], the EC50 lay in the range of 10 to 25 µM and the Emax was more than 100%.

Regarding `O=C(Nc1ncc(C(c2ccccc2)N2CCOCC2)s1)C1(c2ccc3c(c2)OCO3)CC1` (stereo not shown) [Example 369], the EC50 was less than 10 µM and the Emax is more than 100%.

Consider `COc1cccc(C(c2cnc(NC(=O)C3(c4ccc5c(c4)OCO5)CC3)s2)N2CCC[C@@H]2C(N)=O)c1` (stereo partly shown) [Example 370], for which the EC50 was less than 10 µM and the Emax was more than 100%.

As for `O=C(Nc1ncc(C(c2ccccc2)N2CCCCC2)s1)C1(c2ccc3c(c2)OCO3)CC1` (stereo not shown) [Example 371], the half-maximal effective concentration (EC50) was less than 10 µM and the Emax is more than 100%.

As for `CCN(CC)C(c1ccccc1)c1cnc(NC(=O)C2(c3ccc4c(c3)OCO4)CC2)s1` (stereo not shown) [Example 372], the EC50 was less than 10 µM and the Emax is more than 100%.

For `COc1cccc(C(c2cnc(NC(=O)C3(c4ccc5c(c4)OCO5)CC3)s2)N2CCCC2)c1` (stereo not shown) [Example 373], the EC50 was less than 10 µM and the Emax is more than 100%.

As to `COc1cccc(C(c2cnc(NC(=O)C3(c4ccc5c(c4)OCO5)CC3)s2)N2CCOCC2)c1` (stereo not shown) [Example 374], the EC50 was less than 10 µM and the Emax was more than 100%.

For the molecule `COCC1CCCN1C(c1ccc(S(C)(=O)=O)cc1)c1cnc(NC(=O)C2(c3ccc4c(c3)OCO4)CC2)s1` (stereo not shown) [Example 375], the half-maximal effective concentration (EC50) lay within 10 to 25 µM and the Emax was 25 to 100%.

Turning to `CCN(CC)C(c1ccc(S(C)(=O)=O)cc1)c1cnc(NC(=O)C2(c3ccc4c(c3)OCO4)CC2)s1` (stereo not shown) [Example 376], the EC50 lay within 10 to 25 µM and the Emax lay in the range of 25 to 100%.

For `CS(=O)(=O)c1ccc(C(c2cnc(NC(=O)C3(c4ccc5c(c4)OCO5)CC3)s2)N2CCC[C@H]2C(N)=O)cc1` (stereo partly shown) [Example 377], the concentration for a half-maximal effect (EC50) is 10 to 25 µM and the Emax was 25 to 100%.

In the case of `CS(=O)(=O)c1ccc(C(c2cnc(NC(=O)C3(c4ccc5c(c4)OCO5)CC3)s2)N2CC[C@@H](O)C2)cc1` (stereo partly shown) [Example 378], the EC50 lay in the range of 10 to 25 µM and the Emax lay in the range of 25 to 100%.

As for `COC[C@@H]1CCCN1C(c1ccc(S(C)(=O)=O)cc1)c1cnc(NC(=O)C2(c3ccc4c(c3)OCO4)CC2)s1` (stereo partly shown) [Example 379], the EC50 lay within 10 to 25 µM and the Emax lay in the range of 25 to 100%.

In the case of `CS(=O)(=O)c1ccc(C(c2cnc(NC(=O)C3(c4ccc5c(c4)OCO5)CC3)s2)N2CCC(O)CC2)cc1` (stereo not shown) [Example 380], the EC50 lay in the range of 10 to 25 µM and the Emax fell in the range of 25 to 100%.

For the molecule `CN(C)C(c1ccc(S(C)(=O)=O)cc1)c1cnc(NC(=O)C2(c3ccc4c(c3)OCO4)CC2)s1` (stereo not shown) [Example 381], the EC50 is 10 to 25 µM and the Emax lay in the range of 25 to 100%.

The values are drawn from patent publication US7977322B2 (Vertex Pharmaceuticals Incorporated, priority 2004, dated 2011).
